Reference: publication PMC5444383 (Biochemistry, 2016)
Like-named read-outs stand apart in the source and are kept apart here.

Assays:
[1] = target: T1, ethylene-forming enzyme (EFE) (Pseudomonas savastanoi, UniProt P32021); assay: anaerobic UV-vis difference titration; assay type: binding
[2] = target: T1, ethylene-forming enzyme (EFE); assay: anaerobic UV-vis difference titration; assay type: binding; remark: listed apart in the source
O=C(O)CCCC(=O)C(=O)O = assay: purified protein; settings: Fe(II) active-site Fe(II) (MLCT transition)

T1 sequence (P32021 whole entry): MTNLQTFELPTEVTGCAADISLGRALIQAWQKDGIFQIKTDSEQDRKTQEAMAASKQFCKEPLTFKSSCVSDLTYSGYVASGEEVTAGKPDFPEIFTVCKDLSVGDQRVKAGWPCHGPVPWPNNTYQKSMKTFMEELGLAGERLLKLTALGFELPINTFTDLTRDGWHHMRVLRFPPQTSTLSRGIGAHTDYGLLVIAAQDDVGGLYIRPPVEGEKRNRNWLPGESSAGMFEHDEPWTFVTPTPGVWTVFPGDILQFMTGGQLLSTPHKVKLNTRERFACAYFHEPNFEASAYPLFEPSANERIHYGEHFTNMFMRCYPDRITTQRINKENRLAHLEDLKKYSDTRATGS

Compound: O=C(O)CCC(=O)C(=O)O [2OG, 2-oxoglutarate]
- Kd [1]: 25 ± 7 µM

Compound: N=C(N)NCCC[C@H](N)C(=O)O [L-Arg, L-arginine]
- Kd [2]: 34 ± 25 µM

Compound: ethylene-forming enzyme (EFE) (Pseudomonas savastanoi pv. phaseolicola)
- Km (O=C(O)CCCC(=O)C(=O)O): 31 ± 4 µM
- kcat (O=C(O)CCCC(=O)C(=O)O): 0.00417 ± 0.000333 s⁻¹
